# Measured values: a melting point compilation (Tetko et al.; mined from patent text by program, amines drawn as free bases though some values may be those of a salt)
row,Compound,melting point
1,CO[C@H]1CC[C@H](N(C)C(=S)c2ccc3nonc3c2)CC1,137 to 138 °C
2,Cc1cc(C(=O)CCCC(=O)c2cc(C)c(O)c(C(C)(C)C)c2)cc(C(C)(C)C)c1O,156 to 158 °C
3,Cc1ccc(S(=O)(=O)Nc2ccc(N)c([N+](=O)[O-])c2)cc1,146 °C
4,CCc1nnc2c(NC(C)C)nc3ccccc3n12,222 to 224 °C
5,CC1=C(C(=O)N(C)Cc2ccc(Cl)cc2)SC2=NC(C)(C)CN21,139 °C
6,Oc1ccc(Nc2ncc3nc(Nc4c(F)cc(F)cc4F)n(C4CCCC4)c3n2)cn1,257 to 260 °C
7,CC(C)Cc1ccc(C(C)C(=O)NCCN(O)C(N)=O)cc1 (stereo not given),150 to 152 °C
8,Cc1nc([C@@H](Cc2c[nH]c3ccccc23)NC(=O)OC(C)(C)C)oc1C,138 to 140 °C
9,CC(=O)N1CCc2c(sc(C)c2C(=O)CCN2CCC(c3noc4cc(F)ccc34)CC2)C1,180 to 182 °C
10,CS(=O)(=O)c1ccc(Br)cc1[N+](=O)[O-],175 to 177 °C
11,OCCCc1cnoc1-c1ccc(Cl)c(Cl)c1,66 to 67 °C
12,CN1CCC2(CC1)OC(=O)c1ccccc12,147 to 148 °C
13,C(#Cc1ccccn1)CCN1CC=C(c2ccccc2)CC1,87.5 to 88.5 °C
14,COc1ccc2cccc(C(CO)CNC(=O)C3CC3)c2c1 (stereo not given),153 to 154 °C
15,CC#CCOc1ccc(S(=O)(=O)NC2(C(=O)NO)CCCC2)cc1,66 to 68 °C
16,CCN(CC)c1ccc2ccc(=O)oc2c1,87.5 to 88 °C
17,CC(C)(C)OC(=O)N1C(=O)C(C2=COc3ccccc3O2)=C(c2cn(C(=O)OC(C)(C)C)c3cc(OCc4ccccc4)ccc23)C1=O,81 °C
18,C=CCOc1ccccc1OCC(O)CNC1CCC(N2CCNC2=O)CC1 (stereo not given),154 to 155 °C
19,COc1cc(C(=O)c2ccccc2)c(O)c2c1C(C)(C)CCC2(C)C,85 °C
20,COc1ccc(N2CCN(C3CCNCC3)C2=O)cc1,140 °C
21,CC(=O)c1ccc2c(c1)C1(c3ccccc3-2)c2cc(C(C)=O)ccc2-c2ccc(C(C)=O)cc21,258 to 260 °C
22,CCCCS(=O)(=O)NCc1ccc(CCN2CCN(c3ccncc3)CC2)cc1,154 to 156 °C
23,O=C(CN1CCC(Cc2ccc(F)cc2)CC1)Nc1ccc2[nH]cnc2c1,204 °C
24,CC(=O)OCC(COC(C)=O)NC(=O)c1cc(NC(=O)CCl)cc(C(=O)NC(COC(C)=O)COC(C)=O)c1,135 to 137 °C
25,C[C@H](C#Cc1ccc(COCc2ccc(F)cc2)s1)N(O)C(N)=O,90 to 91 °C

row,Compound,melting point
1,S=c1cc(-c2ccc(Cl)cc2)ss1,135 °C
2,O=C(NCCCCCCCNC(=O)c1ccc(OC2CCCC2)cc1)c1ccc(OC2CCCC2)cc1,153 to 154 °C
3,CN(C)c1nc(NCc2ccc(NC(=O)c3ccc(F)cc3)cc2)c2ccc(-c3ccccc3C=O)cc2n1,128 °C
4,O=C(O)C1CCN(c2ncc(NS(=O)(=O)c3ccccc3Br)c(NCc3ccccc3)n2)CC1,114 to 117 °C
5,COc1ncccc1C(=O)NC1CNCCn2c1nc(-c1ccncn1)cc2=O (racemic),236 to 238 °C
6,CON(c1ccc([N+](=O)[O-])cc1[N+](=O)[O-])S(=O)(=O)c1ccc(C)cc1,146 to 148 °C
7,CCNc1ccc(Cl)cc1C(=O)c1ccccc1,57 to 58 °C
8,O=C(Oc1ccccc1)C1c2ccccc2Oc2ccc(O)cc21 (stereo not given),182 to 184 °C
9,C=CCOc1ccc2c(c1)C(=O)NC(C)(C)O2,137 to 138 °C
10,COC(=O)c1cc(Br)cc(I)c1,55 to 57 °C
11,CCOC(=O)C(C)=C(CC)NC(=O)Nc1cc(C(=O)OC(C)C)c(Cl)cc1F,132 to 133 °C
12,COc1cccc(NC(=O)c2ccc(C(=O)N3CCCc4ccccc43)cc2)c1,154 to 155 °C
13,O=C(C=Cc1ccc2c(c1)OCO2)C1C(=O)CCC1=O,181 to 182 °C
14,CSc1cnn2c(Nc3ccc(F)c(Cl)c3)cc(Cl)nc12,156 to 158 °C
15,CCN(CC)C(=O)c1cccc(-c2nc(=O)c3ccccc3s2)n1,194 °C
16,COC(=O)C(O)CC1CCC(=O)N1 (stereo not given),87 to 90 °C
17,CCOC(=O)Cc1c(C)nc(Nc2nc3cc(C)c(C)cc3[nH]2)nc1O,> 300 °C
18,O=C(ON1C(=O)CCC1=O)c1ccco1,126 to 127 °C
19,COc1cc2nc(N)nc(-c3ccc(Cl)cc3)c2cc1OC,248 to 250 °C
20,O=C1CCC2=C1C(c1ccc(F)c(I)c1)C1=C(CCS1)N2 (stereo not given),> 250 °C
21,CCOC(=O)c1cc(OC(C)=O)c2cc(N3CCOCC3)ccc2c1,135 to 137 °C
22,Cc1cc(-n2c(C)nc3ccccc32)cc2ccc(=O)[nH]c12,307 to 313 °C
23,Cc1ccc(N(c2ccccc2)c2ccc3c4c(cccc24)CC3)cc1,147 to 148 °C
24,Cn1cc(Br)cc(Nc2ccc(N3CCN(CCF)CC3)cn2)c1=O,141 to 143 °C
25,Nc1ccc([N+](=O)[O-])cc1-c1cc([N+](=O)[O-])ccc1N,315 to 317 °C
